Patent US10543159B2, “Hair papilla cell activator” (Ezaki Glico Co., Ltd., priority 2014, dated 2020)

Legend:
[1] = system: human follicle dermal papilla cells; experiment: Follicle dermal papilla cell proliferation, WST-1 (Example 1); type: cell-based
Description: A strain (Lot. 3092504.12) sold by PromoCell (Germany) was used as human follicle dermal papilla cells. The cells were cultured in a CO2 incubator at 37° C., using a special medium for follicle dermal papilla cells (PromoCell), unless otherwise indicated. Cell subculturing was performed as follows: cells were seeded at 5000 to 10000 cells/cm^2 in an uncoated dish, and when the cells reached subconfluent, they were treated with trypsin-EDTA (0.03%) and detached, and then re-seeded. The trypsin-EDTA treatment allows complete detachment of the cells by incubation at 37° C. for nearly 10 minutes, with a high survival rate. The medium was replaced about once every 3 days.
(1) Human follicle dermal papilla cells were seeded in a 96-well collagen I-coated plate (BD Biocoat Collagen I 96-well clear plate) at 1.6×10^3 cells/well and cultured at 37° C. for 24 hours. Cells were not seeded in two wells on the plate for blanks.
(2) Solutions of the compositions shown in the table were prepared in a concentration series starting from a 10% (w/v) aqueous solution of POs-Ca (R), a 1.84% (w/v) aqueous solution of CaCl2.2H2O, or a 12.9% (w/v) aqueous solution of G1P-Ca.
(3) The above-described aqueous solutions and the special medium were mixed at a ratio of 1:9 to prepare media having five different concentrations for each calcium species with a final concentration of 1/10 shown in Table 1. The media in each of the columns of Table 1 have the same calcium concentration. […]
(7) Absorbance at 440 nm was measured for each well, using a fluorescence microplate reader (Varioskan Flash 2.4; Thermo Fisher Scientific, US).
(8) The value obtained by subtracting the absorbance of the blank wells from the absorbance of the well of the sample was defined as the value of the relative amount of cells of the sample in each well. The degree of cell proliferation relative to the control was calculated by dividing the value of the relative amount of cells in each well, by the average value of the relative amount of cells in the control medium.

[2] = system: versican; experiment: Quantitative PCR gene expression in follicle dermal papilla cells: versican; type: cell-based, human; details: Example 3: 0.25% POs-Ca (R) or CaCl2 of equivalent calcium, DMEM, 37° C., 5 hours; Dunnett, n=6
Description: (1) 500 μl of a special medium in which 4×10^4 cells/ml of follicle dermal papilla cells were suspended was dispensed into a type I collagen-coated 24-well cell culture plate (Corning), and cultured at a cell density of 1.0×10^4 cells/cm^2 at 37° C. for 42 hours. (2) (a) Water (control), (b) a 2.5% (w/v) aqueous solution of POs-Ca (R), and (c) a 0.457% aqueous solution of CaCl2 (having an equivalent amount of calcium to that of (b)) were prepared. Each of the solutions (a) to (c) was mixed with DMEM high glucose (Sigma, USA) at a ratio of 1:9. […]
(6) 0.5 μl of each of cDNA solutions diluted 2-fold with water, 1 μl of a solution containing 4 μM of each of primers 1 and 2 for each of the genes shown in Table 2, 5 μl of SYBR Premix Ex Taq II (Takara), and 3.5 μl of water were added, and quantitative PCR was performed on each of the genes. […] Fluorescence intensity after each cycle was measured.
(7) Using PGK1 and GAPDH as reference genes, a comparative analysis of expression levels was performed with the analysis software (Bio-Rad CFX Manager 3.0) included in CFX96Touch. Relative expression levels were calculated under the default conditions of the software.
(8) The average value of calculated expression levels was determined for the six samples derived from the cells treated under the respective conditions, and defined as the expression level relative to the control.

[3] = system: VEGF; experiment: Expression rate of VEGF among acidic saccharide salts, quantitative PCR (Example 6); type: cell-based, human; details: Example 6: solutions (b)-(h) of b288 mixed 1:9 with DMEM, GAPDH reference, mean of 4 PCR assays, dihydrate
Description: (§1) (1) 500 μl of a special medium in which 2×10^4 cells/ml of follicle dermal papilla cells were suspended was dispensed into a type I collagen-coated 24-well cell culture plate (Corning), and cultured at a cell density of 5×10^3 cells/cm^2 at 37° C. for 72 hours. […] Oji Cornstarch Co., Ltd.), (f) a 2.5% (w/v) aqueous solution of a phosphorylated oligosaccharide magnesium salt (POs-Mg; […] (3) Each of the solutions (a) to (c) was mixed with DMEM high glucose (Sigma, USA) at a ratio of 1:9. (4) Following the procedures (4) to (6) in Example 2, mRNA was extracted from the cells, cDNA was prepared, and then the expression levels of the VEGF, FGF-7, and GAPDH genes were quantified by quantitative PCR. (7) Using GAPDH as a reference gene, a comparative analysis of expression levels was performed with the analysis software (Bio-Rad CFX Manager 3.0) included in CFX96Touch. The expression levels were calculated under the default conditions of the software.

[4] = system: FGF-7; experiment: Expression rate of FGF-7 among acidic saccharide salts, quantitative PCR (Example 6); type: cell-based, human; details: Example 6: solutions (b)-(h) of b288 mixed 1:9 with DMEM, GAPDH reference, mean of 4 PCR assays, dihydrate
Description: as §1

O.O.[Ca+2].[Cl-].[Cl-] [CaCl2, calcium chloride dihydrate]
proliferation rate tendency at low concentrations ([1]; 0.0625% and 0.12% POs-Ca (R), 0.0115% and 0.023% calcium chloride): tended to decrease | increase of cell proliferation relative to the control ([1]; 0.25% POs-Ca (R) or calcium chloride with equivalent calcium, 3 days, WST-1): 5.6% | proliferation rate at high concentrations ([1]; 0.5% and 1.0% POs-Ca (R), 0.092% and 0.184% calcium chloride): tended to increase | expression of versican gene compared to control [2]: significantly decreased | VEGF, relative values of the expression levels based on the control as 1 [3]: 0.80 | VEGF, relative values of the expression levels based on the control as 1 ([3]; listed as calcium chloride): either comparable to or below the control | FGF7, relative values of the expression levels based on the control as 1 [4]: 1.02 | FGF7, relative values of the expression levels based on the control as 1 ([4]; listed as calcium chloride): either comparable to or below the control
